# According to US20210215694A1, “FILM OF CHITOSAN AND A DEVICE COMPRISING THE SAME DEPOSITED ON A SUBSTRATE AND USES THEREOF” (priority 2018, published 2021):
# Where two headings read alike, the source gives them in different places.
# What was measured:
# UTI 227 = experiment: Dose-dependent answer: time for cell death; format: cell-based, Escherichia coli; details: different concentrations
# Procedure: (§1) Dose-dependent answer. Ertapenem (ETP) is an antibiotic used in the medical field in order to determine MIC. ETP was tested at different concentrations on UTI 227 and for each cell observed, the time for cell death was quantified (FIGS. 7B and 7C). […] Similarly, UTI 687 was contacted with different concentration of mecillinam (MEC), and the cell width was quantified.
# UTI 687 [1] = experiment: Antibiotic susceptibility from blood culture on chitosan χ1; format: cell-based, Escherichia coli; details: UTI 687 grown in blood culture vial
# Procedure: Antibiotic susceptibility from blood culture. UTI 687 was cultivated in LB medium and then diluted to obtain a cell concentration close to the one find in blood during septicemia (final concentration: 5 CFU/ml). The suspension was then inoculated in culture vial for blood culture. After over-night culture (agitation, 37° C.), culture suspension was diluted in LB media for a final OD=0.01. Cells are then prepared as describe in material and method to determine cell susceptibility to ETP.
# Antibiotic susceptibility from blood culture. […] These debris probably originate from blood culture media. However, it was possible to determine a CMI: CMIχ1≤1, which is coherent with the expected values.
# UTI227 [2] = details: for Outcome: UTI227
# Procedure: CMI determination. Different channels were prepared simultaneously with the same cell suspension. Antibiotic was prepared at different concentrations (one channel contained only LB as a control) and added to channel just before image acquisition: each channel contain a different antibiotic concentration. A picture was taken every 2 or 3 minutes in each channel. At the end of the acquisition we determined if concentrations tested induced cell death or not.
# (§2) Minimum inhibitory concentration. Several experiments were performed with different ETP concentrations added to UTI 227 cells.
# UTI227 [3] = experiment: CMI by Vitek; format: cell-based, Escherichia coli
# Procedure: as §2
# UTI 687 cells = experiment: Cell death detection with propidium iodide stain on chitosan χ1; format: cell-based, Escherichia coli; details: 3 mg/L, 50 μL/mL of PI
# Procedure: Following the protocol described in material and methods, UTI 687 cells were contacted with chitosan χ1 surface. Before acquisition, channel was rinsed with LB supplemented with 3 mg/L of ETP and 50 μL/mL of PI (FIG. 11B).
# K12 cells = details: K12 on commercial chitosan; 50 μL/mL PI; after 30 seconds
# Procedure: Propidium iodide (PI) is used as a DNA stain which cannot cross the membrane of live cells, making it useful to differentiate dead, dying and healthy cells. K12 cells were immobilized to commercial chitosan on microfluidic chamber (channels in PDMS) in presence or absence of EtOH 70%. Channels were rinsed with LB, 50 μL/mL PI.
# UTI704 [4] = experiment: CMI (MIC) determination on chitosan χ1 channels; format: cell-based, Escherichia coli
# Source text: (§3) For each conditions, a similar result was obtained.
# UTI698 [5] = experiment: CMI (MIC) determination on chitosan χ1 channels; format: cell-based, Escherichia coli
# Source text: as §3
# UTI 687 [6] = experiment: Dose-dependent answer: cell width; format: cell-based, Escherichia coli; details: 2 mg/L, after 1 hour of contact
# Procedure: as §1
# UTI704 [7] = experiment: CMI by Vitek; format: cell-based, Escherichia coli
# Source text: as §3
# UTI698 [8] = experiment: CMI by Vitek; format: cell-based, Escherichia coli
# Source text: as §3
# UTI687 [9] = experiment: CMI (MIC) determination on chitosan χ1 channels; format: cell-based, Escherichia coli
# Source text: as §3
# UTI687 [10] = experiment: CMI by Vitek; format: cell-based, Escherichia coli
# Source text: as §3
# K12 = experiment: Visualization of antibiotics susceptibility; format: cell-based, Escherichia coli
# Procedure: Visualization of antibiotics susceptibility. Two channels were prepared with K12, identically. Before starting picture acquisition, one channel was rinsed with LB media, the other one with LB media supplemented with 100 μg/ml of ampicillin. […] Morphological changes were observed earlier than 1 hour and cell death imaged by lysis occurred right after 2 hours of incubation.
# [11] = concentration 0.25 (head mg/ml, title mg/L)
# [12] = concentration 0.5 (head mg/ml, title mg/L)
# [13] = concentration 1 (head mg/ml, title mg/L)
# [14] = concentration 2 (head mg/ml, title mg/L)
smiles,measurement,setting,value
C[C@@H](O)[C@H]1C(=O)N2C(C(=O)O)=C(S[C@@H]3CN[C@H](C(=O)Nc4cccc(C(=O)O)c4)C3)[C@H](C)[C@H]12 [Ertapenem],Time for cell death according to concentration,UTI 227,significantly faster for a higher concentration
same,CMIχ1,UTI 687 [1],≤ 1
same,Concentration above which a cytotoxic effect was observed,UTI227 [2],above 0.01 mg/L
same,Outcome,UTI227 [2]; concentration 0.01 (mg/L),Growth
same,Outcome,UTI227 [2]; concentration 0.05 (mg/L),Death
same,Outcome,UTI227 [2]; concentration 0.1 (mg/L),Death
same,Outcome,UTI227 [2]; concentration 0.125 (mg/L),Death
same,Outcome,UTI227 [2]; concentration 0.25 (mg/L),Death
same,Outcome,UTI227 [2]; concentration 0.5 (mg/L),Death
same,Outcome,UTI227 [2]; concentration 0.75 (mg/L),Death
same,CMI (Vitek),UTI227 [3],≤0.5 mg/L
same,CMI (Vitek),UTI227 [3]; listed as ETP,≤ 0.5 mg/L
same,Propidium iodide staining of cells,UTI 687 cells,some cells turned in red
"CCO [EtOH 70%, EtOH]",Propidium iodide fluorescence of cells,K12 cells,all the cells incubated with EtOH were fluorescent
"CC1(C)S[C@@H]2[C@H](/N=C/N3CCCCCC3)C(=O)N2[C@H]1C(=O)O [Mecillinam, mecillinam]",CMI (measured),UTI704 [4]; chitosan χ1,≤2 mg/L
same,Outcome,UTI704 [4]; [11],Growth
same,Outcome,UTI704 [4]; [12],Growth
same,Outcome,UTI704 [4]; [13],Growth
same,Outcome,UTI704 [4]; [14],Death
same,CMI (measured),UTI698 [5]; chitosan χ1,≤1 mg/L
same,Outcome,UTI698 [5]; [13],Death
same,Outcome,UTI698 [5]; [14],Death
same,Outcome,"UTI698 [5]; concentration 5 (head mg/ml, title mg/L)",Death
same,Cell width,UTI 687 [6],An augmentation was observed
same,CMI (Vitek),UTI704 [7],2 mg/L
same,CMI (Vitek),UTI698 [8],≤1 mg/L
same,Outcome,UTI227 [2]; concentration 4 (mg/L),Growth
same,Outcome,UTI227 [2]; concentration 8 (mg/L),Death
same,Outcome,UTI227 [2]; concentration 12 (mg/L),Death
same,Outcome,UTI227 [2]; concentration 16 (mg/L),Death
same,CMI (Vitek),UTI227 [3],8 mg/L
"CC1COc2c(N3CCN(C)CC3)c(F)cc3c(=O)c(C(=O)O)cn1c23 (stereo not shown) [Ofloxacin, ofloxacin]",CMI (measured),UTI687 [9]; chitosan χ1,≤0.25 mg/L
same,Outcome,UTI687 [9]; [11],Death
same,Outcome,UTI687 [9]; [12],Death
same,Outcome,UTI687 [9]; [13],Death
same,Outcome,UTI687 [9]; [14],Death
same,CMI (Vitek),UTI687 [10],0.5 mg/L
CC1(C)S[C@@H]2[C@H](NC(=O)[C@H](N)c3ccccc3)C(=O)N2[C@H]1C(=O)O [ampicillin],Time at which morphological changes were observed,K12; 100 μg/ml,< 1 hour
same,Time of cell death imaged by lysis,"K12; 100 μg/ml, incubation",~2 h
same,Effect on cells (in words),K12; LB supplemented with 100 μg/ml,cells extended but did not divide
